Measurements: patent US20230085307A1, “PYRIDAZINONE COMPOUND AND HERBICIDE” (NISSAN CHEMICAL CORPORATION, priority 2019, published 2023)

Legend:
late watergrass = assay: Test Example 2: herbicidal activity, application during weed generation under submerged conditions (Table 17, symbol A); type: in vivo, late watergrass (Echinochloa oryzicola); details: AAH 178 g/ha; application during weed generation, submerged conditions
How it was run: (§1)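 Mixed weed seedlings in alluvial soil under a 4 cm water layer, greenhouse-grown at 25–30° C. Compound given as a diluted emulsion into the floodwater at the 1–2 leaf stage; response graded after three weeks.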

Japanese bulrush = assay: Test Example 2: herbicidal activity, application during weed generation under submerged conditions (Table 17, symbol B); type: in vivo, Japanese bulrush (Schoenoplectus juncoides); details: AAH 178 g/ha; application during weed generation, submerged conditions
How it was run: as §1

oval-leafed pondweed = assay: Test Example 2: herbicidal activity, application during weed generation under submerged conditions (Table 17, symbol C); type: in vivo, oval-leafed pondweed (Monochoria vaginalis); details: AAH 178 g/ha; application during weed generation, submerged conditions
How it was run: as §1

barnyard grass [1] = assay: Test Example 3: herbicidal effect by foliage application, Wagner pot (Table 18, symbol H); type: in vivo, barnyard grass (Echinochloa crus-galli); details: 178 g/ha
How it was run: (§2)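 Plants were sown in alluvial soil held under 0.1–0.5 cm standing water and grown 14 days in a greenhouse at 25–30 °C. An emulsifiable formulation, water-diluted to the set dose, was then sprayed onto the foliage, and effects were scored three weeks later using previously defined criteria.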

Chinese sprangletop = assay: Test Example 3: herbicidal effect by foliage application, Wagner pot (Table 18, symbol D); type: in vivo, chinese sprangletop (Leptochloa chinensis); details: 178 g/ha
How it was run: as §2

rice flat sedge = assay: Test Example 3: herbicidal effect by foliage application, Wagner pot (Table 18, symbol E); type: in vivo, rice flat sedge (Cyperus iria); details: 178 g/ha
How it was run: as §2

southern crabgrass [2] = assay: Test Example 4: herbicidal effect by soil treatment (Table 19, symbol F); type: in vivo, southern crabgrass (Digitaria ciliaris); details: AAH 178 g/ha
How it was run: (§3)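 Step 1: sow seeds in sterilized diluvial soil, cover ~1.5 cm. Step 2: spray diluted emulsion onto soil surface at predetermined rate. Step 3: greenhouse, 25–30° C, three weeks. Step 4: grade effect on each plant by earlier criteria.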

green foxtail [3] = assay: Test Example 4: herbicidal effect by soil treatment (Table 19, symbol G); type: in vivo, green foxtail (Setaria viridis); details: AAH 178 g/ha
How it was run: as §3

barnyard grass [4] = assay: Test Example 4: herbicidal effect by soil treatment (Table 19, symbol H); type: in vivo, barnyard grass (Echinochloa crus-galli); details: AAH 178 g/ha
How it was run: as §3

wild oat [5] = assay: Test Example 4: herbicidal effect by soil treatment (Table 19, symbol I); type: in vivo, wild oat (Avena fatua); details: AAH 178 g/ha
How it was run: as §3

blackgrass [6] = assay: Test Example 4: herbicidal effect by soil treatment (Table 19, symbol J); type: in vivo, blackgrass (Alopecurus myosuroides); details: AAH 178 g/ha
How it was run: as §3

Italian ryegrass [7] = assay: Test Example 4: herbicidal effect by soil treatment (Table 19, symbol K); type: in vivo, Italian ryegrass (Lolium multiflorum); details: AAH 178 g/ha
How it was run: as §3

windgrass [8] = assay: Test Example 4: herbicidal effect by soil treatment (Table 19, symbol L); type: in vivo, windgrass (Apera spica-venti); details: AAH 178 g/ha
How it was run: as §3

velvetleaf [9] = assay: Test Example 4: herbicidal effect by soil treatment (Table 19, symbol M); type: in vivo, velvetleaf (Abutilon theophrasti); details: AAH 178 g/ha
How it was run: as §3

redroot pigweed [10] = assay: Test Example 4: herbicidal effect by soil treatment (Table 19, symbol N); type: in vivo, redroot pigweed (Amaranthus retroflexus); details: AAH 178 g/ha
How it was run: as §3

lambsquarters [11] = assay: Test Example 4: herbicidal effect by soil treatment (Table 19, symbol O); type: in vivo, lambsquarters (Chenopodium album); details: AAH 178 g/ha
How it was run: as §3

chickweed [12] = assay: Test Example 4: herbicidal effect by soil treatment (Table 19, symbol P); type: in vivo, common chickweed (Stellaria media); details: AAH 178 g/ha
How it was run: as §3

false cleavers [13] = assay: Test Example 4: herbicidal effect by soil treatment (Table 19, symbol Q); type: in vivo, false cleavers (Galium spurium); details: AAH 178 g/ha
How it was run: as §3

persian speedwell [14] = assay: Test Example 4: herbicidal effect by soil treatment (Table 19, symbol R); type: in vivo, Persian speedwell (Veronica persica); details: AAH 178 g/ha
How it was run: as §3

southern crabgrass [15] = assay: Test Example 5: herbicidal effect by foliage application, plastic box (Table 20, symbol F); type: in vivo, southern crabgrass (Digitaria ciliaris); details: foliage application
How it was run: (§4)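 Foliar spray test: emulsion formulation diluted in water to a set application rate, sprayed onto 14-day-old plants raised in diluvial soil at 25° C to 30° C under glass. Both herbicidal effect and crop effect rated visually three weeks later.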

green foxtail [16] = assay: Test Example 5: herbicidal effect by foliage application, plastic box (Table 20, symbol G); type: in vivo, green foxtail (Setaria viridis); details: foliage application
How it was run: as §4

barnyard grass [17] = assay: Test Example 5: herbicidal effect by foliage application, plastic box (Table 20, symbol H); type: in vivo, barnyard grass (Echinochloa crus-galli); details: foliage application
How it was run: as §4

wild oat [18] = assay: Test Example 5: herbicidal effect by foliage application, plastic box (Table 20, symbol I); type: in vivo, wild oat (Avena fatua); details: foliage application
How it was run: as §4

blackgrass [19] = assay: Test Example 5: herbicidal effect by foliage application, plastic box (Table 20, symbol J); type: in vivo, blackgrass (Alopecurus myosuroides); details: foliage application
How it was run: as §4

Italian ryegrass [20] = assay: Test Example 5: herbicidal effect by foliage application, plastic box (Table 20, symbol K); type: in vivo, Italian ryegrass (Lolium multiflorum); details: foliage application
How it was run: as §4

windgrass [21] = assay: Test Example 5: herbicidal effect by foliage application, plastic box (Table 20, symbol L); type: in vivo, windgrass (Apera spica-venti); details: foliage application
How it was run: as §4

velvetleaf [22] = assay: Test Example 5: herbicidal effect by foliage application, plastic box (Table 20, symbol M); type: in vivo, velvetleaf (Abutilon theophrasti); details: foliage application
How it was run: as §4

lambsquarters [23] = assay: Test Example 5: herbicidal effect by foliage application, plastic box (Table 20, symbol O); type: in vivo, lambsquarters (Chenopodium album); details: foliage application
How it was run: as §4

persian speedwell [24] = assay: Test Example 5: herbicidal effect by foliage application, plastic box (Table 20, symbol R); type: in vivo, Persian speedwell (Veronica persica); details: foliage application
How it was run: as §4

redroot pigweed [25] = assay: Test Example 5: herbicidal effect by foliage application, plastic box (Table 20, symbol N); type: in vivo, redroot pigweed (Amaranthus retroflexus); details: foliage application, 320 g/ha, three weeks after application
How it was run: as §4

chickweed [26] = assay: Test Example 5: herbicidal effect by foliage application, plastic box (Table 20, symbol P); type: in vivo, common chickweed (Stellaria media); details: foliage application, 320 g/ha, three weeks after application
How it was run: as §4

false cleavers [27] = assay: Test Example 5: herbicidal effect by foliage application, plastic box (Table 20, symbol Q); type: in vivo, false cleavers (Galium spurium); details: foliage application, 320 g/ha, three weeks after application
Excerpt: [Test Example 5] Herbicidal Effect Test by Foliage Application
Sterilized diluvial soil was placed in a plastic box having a length of 21 cm, a width of 13 cm, and a depth of 7 cm. The seeds of each of southern crabgrass, green foxtail, barnyard grass, wild oat, blackgrass, Italian ryegrass, windgrass, velvetleaf, redroot pigweed, lambsquarters, chickweed, false cleavers, persian speedwell, corn, soybean, rice, wheat, beet, and rapeseed were sowed in a spot-like manner and covered with the soil having a thickness of about 1.5 cm. Thereafter, the plants were grown in a greenhouse at 25° C. to 30° C. After 14-day growth of the plants, the emulsion agent of the compound of the present invention prepared according to Formulation Example 2 was diluted with water so as to achieve a predetermined herbicide amount, and the diluted emulsion agent was uniformly applied to a foliage part with a small-sized spray. Three weeks after the herbicide application, the effect of the herbicide on each plant was evaluated according to the criteria of Test Example 1.

[28] = 178 g/ha, 3 weeks after application
[29] = 320 g/ha, three weeks after application

SMILES: COCCOCOc1c(C)nn(C)c(=O)c1-c1c(-c2ccc(OC(F)F)cc2)sc2ccccc12 [1-202]
- herbicidal effect rating, A: late watergrass (late watergrass): 2 (Herbicidal rate of 20% or more and less than 40%)
- herbicidal effect rating, B: Japanese bulrush (Japanese bulrush): 3 (Herbicidal rate of 40% or more and less than 70%)
- herbicidal effect rating, C: oval-leafed pondweed (oval-leafed pondweed): 0 (Herbicidal rate of 5% or less (almost no effect))
- herbicidal effect on H (barnyard grass), rating 0-5 (barnyard grass [1]): 5 (Herbicidal rate of 90% or more (almost completely withered))
- herbicidal effect on D (Chinese sprangletop), rating 0-5 (Chinese sprangletop): 3 (Herbicidal rate of 40% or more and less than 70%)
- herbicidal effect on E (rice flat sedge), rating 0-5 (rice flat sedge): 5 (Herbicidal rate of 90% or more (almost completely withered))
- F: southern crabgrass, herbicidal effect rating (southern crabgrass [2]): 0 (Herbicidal rate of 5% or less (almost no effect))
- G: green foxtail, herbicidal effect rating (green foxtail [3]): 4 (Herbicidal rate of 70% or more and less than 90%)
- H: barnyard grass, herbicidal effect rating (barnyard grass [4]): 3 (Herbicidal rate of 40% or more and less than 70%)
- I: wild oat, herbicidal effect rating (wild oat [5]): 0 (Herbicidal rate of 5% or less (almost no effect))
- J: blackgrass, herbicidal effect rating (blackgrass [6]): 0 (Herbicidal rate of 5% or less (almost no effect))
- K: Italian ryegrass, herbicidal effect rating (Italian ryegrass [7]): 4 (Herbicidal rate of 70% or more and less than 90%)
- L: windgrass, herbicidal effect rating (windgrass [8]): 0 (Herbicidal rate of 5% or less (almost no effect))
- M: velvetleaf, herbicidal effect rating (velvetleaf [9]): 2 (Herbicidal rate of 20% or more and less than 40%)
- N: redroot pigweed, herbicidal effect rating (redroot pigweed [10]): 5 (Herbicidal rate of 90% or more (almost completely withered))
- O: lambsquarters, herbicidal effect rating (lambsquarters [11]): 4 (Herbicidal rate of 70% or more and less than 90%)
- P: chickweed, herbicidal effect rating (chickweed [12]): 3 (Herbicidal rate of 40% or more and less than 70%)
- Q: false cleavers, herbicidal effect rating (false cleavers [13]): 3 (Herbicidal rate of 40% or more and less than 70%)
- R: persian speedwell, herbicidal effect rating (persian speedwell [14]): 4 (Herbicidal rate of 70% or more and less than 90%)
- effect on southern crabgrass (F) (southern crabgrass [15]; [28]): 1 (Herbicidal rate of 5% or more and less than 20%)
- effect on green foxtail (G) (green foxtail [16]; [28]): 5 (Herbicidal rate of 90% or more (almost completely withered))
- effect on barnyard grass (H) (barnyard grass [17]; [28]): 4 (Herbicidal rate of 70% or more and less than 90%)
- effect on wild oat (I) (wild oat [18]; [28]): 0 (Herbicidal rate of 5% or less (almost no effect))
- effect on blackgrass (J) (blackgrass [19]; [28]): 3 (Herbicidal rate of 40% or more and less than 70%)
- effect on Italian ryegrass (K) (Italian ryegrass [20]; [28]): 5 (Herbicidal rate of 90% or more (almost completely withered))
- effect on windgrass (L) (windgrass [21]; [28]): 0 (Herbicidal rate of 5% or less (almost no effect))
- effect on velvetleaf (M) (velvetleaf [22]; [28]): 5 (Herbicidal rate of 90% or more (almost completely withered))
- effect on lambsquarters (O) (lambsquarters [23]; [28]): 5 (Herbicidal rate of 90% or more (almost completely withered))
- effect on persian speedwell (R) (persian speedwell [24]; [28]): 5 (Herbicidal rate of 90% or more (almost completely withered))

SMILES: CCCC(=O)Oc1c(C)nn(C)c(=O)c1-c1c(-c2ccc(OC)cc2)sc2cc(C)ccc12 [3-052]
- F: southern crabgrass, herbicidal effect grade (southern crabgrass [15]; [29]): 0 (Herbicidal rate of 5% or less (almost no effect))
- G: green foxtail, herbicidal effect grade (green foxtail [16]; [29]): 3 (Herbicidal rate of 40% or more and less than 70%)
- H: barnyard grass, herbicidal effect grade (barnyard grass [17]; [29]): 0 (Herbicidal rate of 5% or less (almost no effect))
- I: wild oat, herbicidal effect grade (wild oat [18]; [29]): 0 (Herbicidal rate of 5% or less (almost no effect))
- J: blackgrass, herbicidal effect grade (blackgrass [19]; [29]): 0 (Herbicidal rate of 5% or less (almost no effect))
- K: Italian ryegrass, herbicidal effect grade (Italian ryegrass [20]; [29]): 0 (Herbicidal rate of 5% or less (almost no effect))
- L: windgrass, herbicidal effect grade (windgrass [21]; [29]): 0 (Herbicidal rate of 5% or less (almost no effect))
- M: velvetleaf, herbicidal effect grade (velvetleaf [22]; [29]): 3 (Herbicidal rate of 40% or more and less than 70%)
- N: redroot pigweed, herbicidal effect grade (redroot pigweed [25]): 0 (Herbicidal rate of 5% or less (almost no effect))
- O: lambsquarters, herbicidal effect grade (lambsquarters [23]; [29]): 0 (Herbicidal rate of 5% or less (almost no effect))
- P: chickweed, herbicidal effect grade (chickweed [26]): 5 (Herbicidal rate of 90% or more (almost completely withered))
- Q: false cleavers, herbicidal effect grade (false cleavers [27]): 2 (Herbicidal rate of 20% or more and less than 40%)
- R: persian speedwell, herbicidal effect grade (persian speedwell [24]; [29]): 5 (Herbicidal rate of 90% or more (almost completely withered))
